{"source": "patent US11273250B2", "about": "“Devices, systems, and methods for excavating cancer cells” (GEORGIA TECH RESEARCH CORPORATION, priority 2010, dated 2022)", "key": {"tumor cells": {"test_system": "tumor cells", "assay": "Viability of tumor cells at different concentrations of cyclopamine", "assay_type": "cell-based", "settings": "concentration suggested for conjugation to the collagen hydrogel scaffold", "protocol": "(§1) The smoothened inhibitor, cyclopamine, was evaluated to determine the effective drug concentration required to induce apoptosis in tumor cells. The viability of the tumors cells was measured at different concentrations of cyclopamine. Healthy cells (e.g., neurons and glia) were not affected by exposure to the drug."}, "[1]": {"test_system": "Healthy cells (e.g., neurons and glia)", "assay": "Effect of cyclopamine exposure on healthy cells", "assay_type": "cell-based", "protocol": "as §1"}}, "data": [{"compound": "CC1=C2C[C@H]3[C@@H](CC=C4C[C@@H](O)CC[C@@]43C)[C@@H]2CC[C@]12O[C@@H]1C[C@H](C)CN[C@H]1[C@H]2C", "note": "[cyclopamine]", "values": [{"measurement": "effective drug concentration required to induce apoptosis in tumor cells", "setting": "tumor cells", "value": 30, "unit": "µM"}, {"measurement": "effect of exposure to the drug on healthy cells", "setting": "[1]", "value": "not affected"}]}]}
